The target of data set [1] is T1, α-glucosidase enzyme (EC3.2.1.20, Saccharomyces cerevisiae) (Saccharomyces cerevisiae, UniProt P53341).
T1 construct: purchased Sigma-Aldrich
As to the kind of experiment: biochemical. The settings on record: mean ± SD; substrate p-nitrophenyl glucopyranoside 4 mM, pH 6.8, 37 °C; read-out: α-Glucosidase inhibition IC50. As for the experimental part: α-glucosidase enzyme (EC3.2.1.20, Saccharomyces cerevisiae, 20 U/mg) and substrate (p-nitrophenyl glucopyranoside) were purchased from Sigma-Aldrich. 1 mg of α-glucosidase was dissolved in potassium phosphate buffer (50 mM, pH = 6.8) to obtain the initial activity of 1 U/ml. Then, 20 µl of this enzyme solution was incubated with 135 µl of potassium phosphate buffer and 20 µl of test compound at various concentrations in DMSO. […] The percentage of inhibition for each entry was calculated by using the following formula: %Inhibition=Abscontrol-Abssample/Abscontrol×100.
IC50 values were obtained from the nonlinear regression curve using the Logit method[28],[29].

The target in data set [2] is α-glucosidase. The settings on record: cited from earlier work.
Data set [3] concerns the target T2, α-glucosidase (Saccharomyces cerevisiae, UniProt P53341).
T2 construct: purchased Sigma-Aldrich
As to the kind of experiment: Enzyme kinetic studies (Lineweaver–Burk plot, secondary plot). Type of data set: biochemical. The note with it: for mode of inhibition: Lineweaver–Burk plot, Km increased, Vmax unchanged; for Ki: from plot of Km versus inhibitor concentration, read-out: inhibition constant, Ki. As for the experimental part:
A Lineweaver–Burk plot was generated to identify the type of inhibition and the Michaelis–Menten constant (Km) value was determined from the plot between the reciprocal of the substrate concentration (1/[S]) and reciprocal of enzyme rate (1/V) over various inhibitors concentrations[30],[31].

Read-outs that look alike come from different tables or passages of the source.

As usually defined, the IC50 is the concentration needed to halve the response being measured. Broadly, the melting point is the temperature, or range, at which the solid turns liquid. For orientation: Ki means the dissociation constant of the complex between target and ligand, obtained from inhibition or displacement.

T1 sequence (P53341 whole entry): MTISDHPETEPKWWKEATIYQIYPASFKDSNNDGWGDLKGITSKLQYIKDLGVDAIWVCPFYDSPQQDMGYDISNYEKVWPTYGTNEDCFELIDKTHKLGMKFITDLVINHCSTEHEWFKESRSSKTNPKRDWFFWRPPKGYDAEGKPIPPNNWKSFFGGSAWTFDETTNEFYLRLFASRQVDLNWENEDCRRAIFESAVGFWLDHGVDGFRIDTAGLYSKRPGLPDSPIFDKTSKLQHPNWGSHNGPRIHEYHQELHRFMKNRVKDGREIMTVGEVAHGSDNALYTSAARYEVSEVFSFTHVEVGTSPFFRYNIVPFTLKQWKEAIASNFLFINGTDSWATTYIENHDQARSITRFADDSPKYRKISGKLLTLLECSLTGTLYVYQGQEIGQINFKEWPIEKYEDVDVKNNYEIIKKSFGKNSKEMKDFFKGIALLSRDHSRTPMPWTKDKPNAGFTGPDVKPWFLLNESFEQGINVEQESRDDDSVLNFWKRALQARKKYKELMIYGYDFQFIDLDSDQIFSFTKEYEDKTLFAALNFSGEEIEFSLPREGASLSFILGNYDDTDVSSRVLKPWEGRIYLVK
T2 sequence (P53341 whole entry): as above

Take `O=C(N/N=C/c1ccccc1F)c1c(O)c2ccccc2[nH]c1=O` [Compound 6b, (E)-N'-(2-fluorobenzylidene)-4-hydroxy-2-oxo-1,2-dihydroquinoline-3-carbohydrazide]: the melting point was 190 to 192 °C. Besides, the IC50 in data set [1] came to 247 ± 1.1 µM.

In the case of `O=C(N/N=C/c1ccc(O)c(O)c1)c1ccc(-c2nnc(-c3ccc4ncccc4c3)o2)cc1` [C], the IC50 in data set [2] (quinoline–oxadiazole Schiff bases, read-out: IC50) was 2.6 ± 0.01 µM.

`O=C(N/N=C/c1cccc(Br)c1)c1c(O)c2ccccc2[nH]c1=O` [Compound 6e, (E)-N'-(3-bromobenzylidene)-4-hydroxy-2-oxo-1,2-dihydroquinoline-3-carbohydrazide] gave a melting point of 187 to 189 °C. In addition, in data set [1], the IC50 came to 436.7 ± 1 µM.

In the case of `O=C(N/N=C/c1cccc(O)c1)c1c(O)c2ccccc2[nH]c1=O` [Compound 6k, (E)-4-hydroxy-N'-(3-hydroxybenzylidene)-2-oxo-1,2-dihydroquinoline-3-carbohydrazide], the melting point was 186 to 188 °C. The IC50 in data set [1] was 196.3 ± 0.7 µM.

As to `O=C(N/N=C/c1ccc(O)cc1O)c1c(O)c2ccccc2[nH]c1=O` [Compound 6n, (E)-N'-(2,4-dihydroxybenzylidene)-4-hydroxy-2-oxo-1,2-dihydroquinoline-3-carbohydrazide], the melting point fell in the range of 185 to 187 °C. In addition, the IC50 in data set [1] worked out at 187.8 ± 0.3 µM.

`O=C(N/N=C/c1ccccc1O)c1c(O)c2ccccc2[nH]c1=O` [Compound 6j, (E)-4-hydroxy-N'-(2-hydroxybenzylidene)-2-oxo-1,2-dihydroquinoline-3-carbohydrazide]: the melting point was 177 to 179 °C. Besides, in data set [1], the IC50 is 154.8 ± 0.1 µM.

`O=C(N/N=C/c1cc(Br)ccc1O)c1c(O)c2ccccc2[nH]c1=O` [Compound 6l, (E)-N'-(5-bromo-2-hydroxybenzylidene)-4-hydroxy-2-oxo-1,2-dihydroquinoline-3-carbohydrazide] yielded a melting point of 171 to 173 °C. Besides, the IC50 in data set [1] worked out at 94.2 ± 1 µM. Besides, in data set [3], the mode of inhibition result is “competitive inhibition” and the Ki came out at 92 µM.

Take `COc1cc(/C=N/NC(=O)c2c(O)c3ccccc3[nH]c2=O)ccc1O` [Compound 6o, (E)-4-hydroxy-N'-(4-hydroxy-3-methoxybenzylidene)-2-oxo-1,2-dihydroquinoline-3-carbohydrazide]: the melting point lay in the range of 193 to 195 °C. In addition, the IC50 in data set [1] was found to be 575.6 ± 0.4 µM.

On to `COc1ccc(/C=N/NC(=O)c2c(O)c3ccccc3[nH]c2=O)cc1` [Compound 6i, (E)-4-hydroxy-N'-(4-methoxybenzylidene)-2-oxo-1,2-dihydroquinoline-3-carbohydrazide], for which the melting point was in the range of 189 to 191 °C. The IC50 in data set [1] came to 259 ± 1 µM.

With `O=C(N/N=C/c1ccc(F)cc1)c1c(O)nc2ccccc2c1O` [Compound 6c, (E)-N'-(4-fluorobenzylidene)-4-hydroxy-2-oxo-1,2-dihydroquinoline-3-carbohydrazide], in data set [1], the IC50 worked out at 195.3 ± 1.2 µM.

Take `Cc1ccc(/C=N/NC(=O)c2c(O)c3ccccc3[nH]c2=O)cc1` [Compound 6h, (E)-4-hydroxy-N'-(4-methylbenzylidene)-2-oxo-1,2-dihydroquinoline-3-carbohydrazide]: the melting point fell in the range of 180 to 182 °C. The IC50 in data set [1] is 136.7 ± 0.5 µM.

In the case of `O=C(N/N=C/c1ccc(Br)cc1)c1c(O)c2ccccc2[nH]c1=O` [Compound 6f, (E)-N'-(4-bromobenzylidene)-4-hydroxy-2-oxo-1,2-dihydroquinoline-3-carbohydrazide], the melting point was 179 to 181 °C. Besides, the IC50 in data set [1] was found to be 520.2 ± 1.5 µM.

In the case of `O=C(N/N=C/c1cccc(F)c1)c1ccc2nc(-c3ccccc3)c(-c3ccccc3)nc2c1` [H], the mode of inhibition entry in data set [2] is recorded as “competitive mode of inhibition”. In addition, in data set [2] (read-out: IC50), the IC50 is 111 µM.

Take `O=C(N/N=C/c1ccc(O)c(O)c1)c1ccc2ncccc2c1` [D]: the IC50 in data set [2] (quinoline derivatives, read-out: IC50) was 6.2 ± 0.3 µM.

In the case of `Oc1ccc2ccccc2n1` [A, 2-hydroxyquinoline], the IC50 in data set [2] (Fig. 1) is 64.4 ± 1.7 µg/mL.

As to `O=C(Cc1ccc(Cl)cc1Cl)N/N=C1/C(=O)Nc2cc(Br)ccc21` [E], in data set [2] (isatin-hydrazone structure, recent research (reference number not given), read-out: IC50), the IC50 is 2.2 ± 0.25 µM.

`O=C(N/N=C/c1ccc(Cl)cc1)c1c(O)c2ccccc2[nH]c1=O` [Compound 6d, (E)-N'-(4-chlorobenzylidene)-4-hydroxy-2-oxo-1,2-dihydroquinoline-3-carbohydrazide] returned a melting point of 194 to 196 °C. Moreover, in data set [1], the IC50 is 131.6 ± 0.3 µM.

Molecule `O=C(N/N=C/c1cc([N+](=O)[O-])ccc1O)c1c(O)c2ccccc2[nH]c1=O` [Compound 6m, (E)-4-hydroxy-N'-(2-hydroxy-5-nitrobenzylidene)-2-oxo-1,2-dihydroquinoline-3-carbohydrazide] showed a melting point of 198 to 200 °C. Besides, in data set [1], the IC50 turned out to be 93.5 ± 0.6 µM. For the same molecule, in data set [3], the mode of inhibition entry was “competitive inhibition” and the Ki was determined as 93 µM.

Turning to `O=C(N/N=C/c1ccc([N+](=O)[O-])cc1)c1c(O)c2ccccc2[nH]c1=O` [Compound 6g, (E)-4-hydroxy-N'-(4-nitrobenzylidene)-2-oxo-1,2-dihydroquinoline-3-carbohydrazide], the melting point was 208 to 210 °C. The IC50 in data set [1] was 120.5 ± 0.8 µM.

With `C[C@H]1O[C@H](O[C@H]2[C@H](O)[C@@H](O)[C@@H](O[C@H]3[C@H](O)[C@@H](O)C(O)O[C@@H]3CO)O[C@@H]2CO)[C@H](O)[C@@H](O)[C@@H]1N[C@H]1C=C(CO)[C@@H](O)[C@H](O)[C@H]1O` (some centres unmarked) [Acarbose], in data set [2] (at 128 μg/mL), the α-glucosidase inhibition is 75.55%.

In the case of `O=C(N/N=C/c1ccccc1)c1c(O)nc2ccccc2c1O` [Compound 6a, (E)-N'-benzylidene-4-hydroxy-2-oxo-1,2-dihydroquinoline-3-carbohydrazide], the IC50 in data set [1] came out at 382.6 ± 0.9 µM.

In the case of `O=C(N/N=C/c1c(O)cc(O)cc1O)c1ccc(-c2cc(=O)c3ccccc3o2)cc1` [F], in data set [2] (flavone-hydrazone, read-out: IC50), the IC50 was 15.4 ± 0.22 µM.

Turning to `O=C(N/N=C/c1ccc(Cl)cc1)c1ccc(-c2nc3ccccc3s2)cc1` [G], in data set [2] (benzothiazole-bearing benzohydrazide, read-out: IC50), the IC50 is 5.31 ± 0.03 µM.

(Values after paper PMC10113378, “Synthesis, in vitro α-glucosidase inhibitory activities, and molecular dynamic simulations of novel 4-hydroxyquinolinone-hydrazones as potential antidiabetic agents” (Scientific Reports, 2023).)
